Laboratory results as given in PMC4986685 (Drug Design, Development and Therapy, 2016).

Tests used:
Safety assessment = assay type: in vivo, human; details: 36 healthy male subjects, 7-day treatments
[1] = cited from earlier work
[2] = tested on: active GLP-1, glucose, glucagon, insulin, and C-peptide; experiment: Oral glucose tolerance test; assay type: in vivo, human; details: significantly smaller than baseline
HbA1c = details: 5 mg dose daily for 12 weeks, patients with type 2 DM with inadequate glycemic control with diet and exercise alone; cited from earlier work
[3] = cited from earlier work; remark: listed apart in the source

Row | Compound | Number of AEs possibly related to the study drug(s) (Safety assessment; all AEs mild) | Half-life ([1]; after a single administration, doses between 1.25 and 60 mg, first-in-human study) | Dose dependence of pharmacokinetics ([1]; doses between 1.25 and 60 mg, single administration) | Tolerability ([1]; first-in-human study, single administration) | AUC of glucose during OGTT relative to baseline [2] | Reduction of mean HbA1c (HbA1c) | Fraction eliminated by renal excretion [3] | Number of subjects with AEs possibly related to the study drug(s) (Safety assessment)
1 | CC(C)(C)OC[C@@H]1C(=O)NCCN1C(=O)C[C@H](N)Cc1cc(F)c(F)cc1F [Evogliptin] | 14 AEs | ≥ 30 h | dose proportional pharmacokinetics | well tolerated | ~ 0.87 fold | 0.66 % point | – | –
2 | CN(C)C(=N)N=C(N)N [Metformin, reference compound] | – | – | – | – | – | – | ~ 90 % of absorbed metformin | 24 subjects
